# Measurements reported in patent US11331290B2, “Niclosamide for the treatment of cancer metastasis” (Max-Delbrück-Centrum für Molekulare Medizin in der …, priority 2011, dated 2022).
# Test system: S100A4 mRNA
# Test: S100A4 mRNA expression by qRT-PCR in colon cancer cells
# Assay type: cell-based, human
# Method: Total RNA was isolated from 4×10^5 cells plated in a 6-well-plates 24 hour before cells were lyzed with Trizol Reagent (Invitrogen). RNA was extracted with Trizol RNA extraction reagent (Invitrogen) according to the manufacturer's instructions. Quantification of the RNA concentration was performed with Nanodrop (Peqlab) and 50 ng total RNA was reverse transcribed with random hexamers in 10 mM MgCl2; 1× RT-buffer, 250 μM pooled dNTPs, 1 U per μL RNAse inhibitor and 2.5 U per μL MuLV reverse transcriptase (all Applied Biosystems). Reaction occurred at 42° C. for 15 minutes, 99° C. for 5 minutes and subsequent cooling at 5° C. for 5 minutes. The cDNA product was amplified in a total volume of 10 μL in 96-well-plates in the LightCycler 480 (Roche) using the following conditions: 95° C., 10 minutes, followed by 45 cycles of 95° C. for 10 seconds, 61° C. for 30 seconds and 72° C. for 4 seconds. For S100A4 cDNA quantification the following primer and probes were used: forward primer 5′-CTCAGCGCTTCTTCTTTC-3′, reverse primer 5′-GGGTCAGCAGCTCCTTTA-3′, fluorescein isothiocyanate probe 5′-[…]-3′, LCRed640-probe 5′-[…]-3′. For cDNA quantification of the housekeeping gene glucose-6-phosphate dehydrogenase (G6PD) the hG6PDH Roche Kit (Roche Diagnostics, Mannheim, Germany) was used according to manufacturers instructions. Data analysis was performed with LightCycler® 480 Software release 1.5.0 SP3. For each qRT-PCR reaction a mean of the duplicate was calculated. Each mean value of the expressed gene was normalized to the respective mean amount of the G6PD cDNA.
# (A) Determination of the cytotoxicity of niclosamide on HCT116 cells. Cells were treated with increasing concentrations of niclosamide for 24 hours and cell viability was measured. (B) Effect of increasing concentrations of niclosamide on S100A4 expression. HCT116 cells were treated with increasing concentrations of niclosamide for 24 hours. S100A4 expression was determined by quantitative reverse-transcription-polymerase chain reaction (qRT-PCR) and immunoblot. (C) Time-dependency of niclosamide effect on S100A4 expression. HCT116 cells were treated with a single dose of 1 μM niclosamide for 24 hours and S100A4 expression was analyzed by qRT-PCR and immunoblot at indicated time points. Black bar indicates the chosen treatment conditions for further experiments. (D) Effect of daily doses of niclosamide on S100A4 expression. HCT116 cells were treated daily with 1 μM niclosamide and S100A4 expression was analyzed by qRT-PCR and immunoblot. Data is given as mean±SD (n>2). Differences in treated groups were compared with the control group by two-sided one-way analysis of variances and Bonferroni post hoc multiple comparison test.
# (E) Effect of niclosamide in HCT116-vector and HCT116-S100A4 cells. HCT116-vector and HCT116-S100A4 cells were treated with 1 μM niclosamide for 24 hours and S100A4 expression was analyzed by qRT-PCR and immunoblot. Data is given as mean±SD (n>2). Comparison of niclosamide vs. solvent-treated cells was analyzed with Student's t test.
# (A) S100A4 expression under niclosamide treatment. Cells were treated with 1 μM niclosamide for 24 hours. S100A4 expression was analyzed with qRT-PCR and immunoblot. (B) Cell migration under niclosamide treatment. Migration rates of cells treated with 1 μM niclosamide for 24 hours were determined in a Boyden chamber assay values were normalized to solvent-treated SW620 cells. (C) Cell invasion under niclosamide treatment. Cells were seeded onto Matrigel covered transwells and treated with 1 μM niclosamide for 24 hours. Invaded cells in the lower chamber were counted and normalized to solvent-treated SW620 cells. Differences in solvent vs. niclosamide-treated cells were analyzed by Student's t test. Data represent mean±SE of at least two independent experiments each performed in triplicate. (D) Directed migration under niclosamide treatment. Wounds of 300 μM width were set in a 60% confluent monolayer of cells on day 1. […]
compound,measurement,setting,value
"O=C(Nc1ccc([N+](=O)[O-])cc1Cl)c1cc(Cl)ccc1O [niclosamide, 2′,5-dichloro-4′-nitrosalicylanilide]",S100A4 mRNA,"DLD-1, 1 μM, 24 h, mRNA barely detectable",remained unchanged
same,"S100A4 mRNA expression, mean difference control vs niclosamide","HAB-68mut, 1 μM, 24 h",0.55
same,"S100A4 mRNA expression, mean (relative to HCT116 control)","HAB-68mut, 1 μM, 24 h, control 1.17",0.62
same,"S100A4 mRNA expression, mean (relative to HCT116 control)","HAB-92 wt, 1 μM, 24 h, control 0.03, statistically not significant",0.01
same,"S100A4 mRNA expression, mean difference control vs niclosamide","HAB-92 wt, 1 μM, 24 h, statistically not significant",0.02
same,"S100A4 mRNA, mean %","HCT116, 1 μM daily for 3 days, 24 hours post-treatment, control 101.9%",58.0%
same,"S100A4 mRNA, mean %","HCT116, 1 μM daily for 3 days, 48 hours post-treatment, control 98.1%",44.4%
same,"S100A4 mRNA, mean %","HCT116, 1 μM daily for 3 days, 72 hours post-treatment, control 100.0%",57.9%
same,"S100A4 mRNA, mean % of solvent-treated control","HCT116, 1 μM daily, 24 hours",46.0%
same,"S100A4 mRNA, mean % of solvent-treated control","HCT116, 1 μM daily, 48 hours",44.5%
same,"S100A4 mRNA, mean % of solvent-treated control","HCT116, 1 μM daily, 72 hours",59.5%
same,"S100A4 mRNA expression, mean difference control vs niclosamide","HCT116, 1 μM, 24 h (relative scale)",0.54
same,"S100A4 mRNA expression, mean (relative to HCT116 control)","HCT116, 1 μM, 24 h, control 1.00",0.46
same,"S100A4 mRNA, mean % of solvent-treated control","HCT116, 1 μM, single dose, 18 hours",47.5%
same,"S100A4 mRNA, mean % of solvent-treated control","HCT116, 1 μM, single dose, 24 h",47.4%
same,S100A4 mRNA and protein levels,"HCT116, 1 μM, single dose, after 30-48 hours",returned to the control level
same,"S100A4 mRNA, mean % of solvent-treated control","HCT116, 1.5 μM, 24 h",39.2%
same,"S100A4 mRNA, mean % of solvent-treated control","HCT116, 2 μM, 24 h",39.1%
same,"S100A4 mRNA, mean % of solvent-treated control","HCT116, 2.5 μM, 24 h",36.7%
same,"S100A4 mRNA, mean difference control vs niclosamide","HCT116, 24 hours post-treatment",43.9%
same,"S100A4 mRNA, mean difference control vs niclosamide","HCT116, 48 hours post-treatment",53.7%
same,"S100A4 mRNA, mean difference control vs niclosamide","HCT116, 72 hours post-treatment",42.1%
same,change in S100A4 expression,"HCT116, concentrations below 1 μM, 24 h",No change
same,"S100A4 mRNA, mean difference control vs niclosamide","HCT116-S100A4, 1 μM, 24 h, not statistically significant",104.7%
same,"S100A4 mRNA, mean %","HCT116-S100A4, 1 μM, 24 h, solvent control 717.0%, not statistically significant",612.3%
same,"S100A4 mRNA, mean % of solvent-treated control","HCT116-vector, 1 μM, 24 h",57.8%
same,"S100A4 mRNA, mean difference control vs niclosamide","HCT116-vector, 1 μM, 24 h",42.0%
same,"S100A4 mRNA, mean difference control vs niclosamide","LS174T, 1 μM, 24 h",51.9%
same,"S100A4 mRNA, mean %","LS174T, 1 μM, 24 h, solvent control 65.5%",13.5%
same,"S100A4 mRNA, mean difference control vs niclosamide","SW480, 1 μM, 24 h",35.0%
same,"S100A4 mRNA, mean %","SW480, 1 μM, 24 h, solvent control 41.0%",6.0%
same,"S100A4 mRNA, mean difference control vs niclosamide","SW620, 1 μM, 24 h",68.8%
same,"S100A4 mRNA, mean %","SW620, 1 μM, 24 h, solvent control 100.0%",31.2%
